What was measured:
[1] = 1H NMR titration, binding of iodide; conditions: DMSO-d6:CDCl3 (15:85, v/v), 25° C.
Procedure: ^1H NMR Titration methods. Titrations of 4c and 6c with anions as their tetra-n-butyl ammonium (TBA) salts were carried out by ^1H NMR (400 MHz on Bruker-400) at room temperature (298 K). 0.5 mL of receptor 4c (5.0 mM) or 6c (2.0 mM) were prepared in the rubber-cap NMR tubes. Aliquots of concentrated TBACl or TBAI solution (50 mM for the titration of 4c and 20 mM for the titration of 6c) containing the same amount of receptors were added into the receptor solution using 20 microliter pipette. An initial ^1H NMR spectrum was collected and additional spectra were obtained after each injection of TBACl or TBAI solution. All titration ^1H NMR spectra were stacked together and the chemical shifts of amide protons were then fitted to the proposed 1:1 binding model using BindFit v0.5 (http://app.supramolecular.org/bindfit/).
Anion binding with four amides, i.e., L1mer-L4mer, was studied in the mixed solvents of CD3CN/CDCl3 (1/9, v/v) by titrating an amide host with 0 to 5 equivalents of tetrabutylammonium (n-Bu4N^+) salt of the corresponding anion. The binding of chloride, bromide, iodide, and nitrate was examined with the four amides in CDCl3 containing 10% CD3CN. The titration data were collected by monitoring the changes in chemical shifts of the backbone amide protons and the inner aromatic protons with varying ratios of the anion guests. […]

[2] = 1H NMR titration, binding of nitrate; conditions: 25° C.
Excerpt: Anion binding with four amides, i.e., L1mer-L4mer, was studied in the mixed solvents of CD3CN/CDCl3 (1/9, v/v) by titrating an amide host with 0 to 5 equivalents of tetrabutylammonium (n-Bu4N^+) salt of the corresponding anion. The binding of chloride, bromide, iodide, and nitrate was examined with the four amides in CDCl3 containing 10% CD3CN. The titration data were collected by monitoring the changes in chemical shifts of the backbone amide protons and the inner aromatic protons with varying ratios of the anion guests. Job plots indicate that these linear oligoamides and their anion guests bind in a 1:1 stoichiometry.
The binding of anions by macrocycle 7c was examined in CH3CN/CHCl3 (6/4, v/v) and in DMSO by titrating with various equivalents of the salts of chloride, iodide. nitrate, and dihydrogen phosphate, with tetrabutylammonium (n-Bu4N^+) being the counterion ion. Following the changes in the chemical shifts of backbone amide protons and “inner” aromatic protons allowed the determination of binding constants.
^1H NMR titration methods. Titrations of c5a and c5b with anions as their tetra-n-butylammonium (TBA), tetra-ethylammonium (TEA) and tetra-methylammonium (TMA) salts were carried out by ^1H NMR (400 MHz) at 25° C. 0.4 mL of corresponding hosts solutions were prepared in the rubber-cap NMR tubes. Aliquots of concentrated guest solution containing hosts were added into the NMR tubes using 20 microliter pipette. An initial ^1H NMR spectrum was collected and additional spectra were obtained after each injection of guest solution. All titration ^1H NMR spectra were stacked together and the chemical shifts of the internal aromatic CH proton were then fitted to 1:1 binding model using BindFit v0.5 (http://app.supramolecular.org/bindfit/) to evaluate binding constants to anions.

[3] = Isothermal titration calorimetry (ITC), ClO4^−; type: binding; conditions: 25° C.
Procedure: Isothermal titration calorimetry (ITC) experiments were performed using a MicroCal VP-ITC. ITC experiments were conducted by adding ~1.5 mL of a solution containing c5a to the sample cell. Followed by titrating 10 μL aliquots of a solution containing the corresponding TBA·X salt (~10-14× concentration of c5a solution) from the syringe into the sample cell. Heats of dilution were obtained by titrating 10 μL aliquots of the TBA·X solution from the syringe into the sample cell in the absence of c5a. The heats of dilution were subtracted from the raw data. ITC data processing and curve fitting was done using the Origin program (MicroCal).
Two-step competition ITC experiments for determining the Ka of c5a and iodide. In CH3CN:CHCl3 (5:95, v/v), the binding affinity of c5a for I^− was too high to be determined with direct NMR or ITC titration. Instead, two-step competition ITC experiments with Cl^− as the competitor were performed.

[4] = Ion transport with different MCl salts, HPTS assay; type: biochemical; conditions: POPC LUVs, 100 mM MCl, pH 7.0, 25° C.
Procedure: Inside vesicles: 10 mM HEPES, 100 mM MCI (M=Li, Na, K, Rb), 1 mM HPTS, pH 7.0. Outside vesicles: 10 mM HEPES, 100 mM MCI, pH 7.0. A base pulse (20 μL of 0.5 M NaOH) was applied to each vesicular solution at 50 s, followed by adding 20 μL of c5a in DMF at 100 s. For each group, the vesicles were lysed after 200 s by adding 0.1% Triton X-100 to obtain the maximum emission intensity for normalization. The emission intensities of the intravesicular HPTS at 510 nm, I405 and I450, corresponding to two excitation wavelengths (405 and 450 nm) were monitored simultaneously, based on which the normalized intensity ratios (I405/I450) of the two emision intensities were obtained.

[5] = Solubility; type: physicochemical; conditions: CHCl3, CH2Cl2, DMF, and DMSO

CCCCCCCCOCC(C)(C)C(=O)Nc1ccc2cc1C(=O)Nc1ccc(NC(=O)C(C)(C)COCCCCCCCC)c(c1)C(=O)Nc1ccc(NC(=O)C(C)(C)COCCCCCCCC)c(c1)C(=O)Nc1ccc(NC(=O)C(C)(C)COCCCCCCCC)c(c1)C(=O)Nc1ccc(NC(=O)C(C)(C)COCCCCCCCC)c(c1)C(=O)N2 [c5a]
Association constant Ka, 1:1 complex with I^− ([1]; single NMR titration (protons a and b)): (2.73 ± 0.17) × 10^4 M^−1
Association constant Ka, 1:1 complex with I^− ([1]; triplicate NMR titrations (footnote c)): (3.77 ± 0.25) × 10^4 ^c M^−1
Association constant Ka, 1:1 complex with NO3^− ([2]; CD3CN:CDCl3 (80:20, v/v), NMR titration): >10^6 M^−1
Association constant Ka, 1:1 complex with NO3^− ([2]; DMSO-d6:CDCl3 (15:85, v/v), NMR titration (protons a and b)): (1.57 ± 0.13) × 10^5 M^−1
Association constant Ka, 1:1 complex with ClO4^− ([3]; DMSO-d6:CDCl3 (15:85, v/v) column, ITC measurements (footnote d)): (1.90 ± 0.02) × 10^4 ^d M^−1
Association constant Ka, 1:1 complex with ClO4^− ([3]; DMSO:CHCl3 (5:95, v/v), ITC): (4.50 ± 0.50) × 10^5 M^−1
transmembrane ion transport in the presence of LiCl, NaCl, KCl, or RbCl [4]: insignificant difference
solubility in organic solvents [5]: soluble

From patent US20260272879A1, “ANION-BINDING AROMATIC OLIGOAMIDE MACROCYCLES AND METHODS OF MAKING AND USING SAME” (The Research Foundation for The State University of New York, priority 2023, published 2026)
